Laboratory results: ChEMBL document CHEMBL4665642, “Anticancer profile of newly synthesized BRAF inhibitors possess 5-(pyrimidin-4-yl)imidazo[2,1-b]thiazole scaffold” (Bioorg Med Chem, 2019)

Legend:
Assay type in all cases: functional
Conditions in all cases: read-out: Activity
HL-60(TB) = assay: Cytotoxicity against human HL-60(TB) cells assessed as cell viability at 10 uM incubated for 48 hrs by sulforhodamine B assay relative to control
MDA-MB-468 = assay: Cytotoxicity against human MDA-MB-468 cells assessed as cell viability at 10 uM incubated for 48 hrs by sulforhodamine B assay relative to control
OVCAR-5 = assay: Cytotoxicity against human OVCAR-5 cells assessed as cell viability at 10 uM incubated for 48 hrs by sulforhodamine B assay relative to control
IGROV-1 = assay: Cytotoxicity against human IGROV-1 cells assessed as cell viability at 10 uM incubated for 48 hrs by sulforhodamine B assay relative to control
OVCAR-4 = assay: Cytotoxicity against human OVCAR-4 cells assessed as cell viability at 10 uM incubated for 48 hrs by sulforhodamine B assay relative to control
RPMI-8226 = assay: Cytotoxicity against human RPMI-8226 cells assessed as cell viability at 10 uM incubated for 48 hrs by sulforhodamine B assay relative to control
K562 = assay: Cytotoxicity against human K562 cells assessed as cell viability at 10 uM incubated for 48 hrs by sulforhodamine B assay relative to control
Hs-578T = assay: Cytotoxicity against human HS-578T cells assessed as cell viability at 10 uM incubated for 48 hrs by sulforhodamine B assay relative to control
CCRF-CEM = assay: Cytotoxicity against human CCRF-CEM cells assessed as cell viability at 10 uM incubated for 48 hrs by sulforhodamine B assay relative to control
COLO 205 = assay: Cytotoxicity against human COLO 205 cells assessed as cell viability at 10 uM incubated for 48 hrs by sulforhodamine B assay relative to control
MOLT-4 = assay: Cytotoxicity against human MOLT-4 cells assessed as cell viability at 10 uM incubated for 48 hrs by sulforhodamine B assay relative to control
OVCAR-3 = assay: Cytotoxicity against human OVCAR-3 cells assessed as cell viability at 10 uM incubated for 48 hrs by sulforhodamine B assay relative to control
SN12C = assay: Cytotoxicity against human SN12C cells assessed as cell viability at 10 uM incubated for 48 hrs by sulforhodamine B assay relative to control
NCI-H460 = assay: Cytotoxicity against human NCI-H460 cells assessed as cell viability at 10 uM incubated for 48 hrs by sulforhodamine B assay relative to control
HOP-92 = assay: Cytotoxicity against human HOP-92 cells assessed as cell viability at 10 uM incubated for 48 hrs by sulforhodamine B assay relative to control
SR = assay: Cytotoxicity against human SR cells assessed as cell viability at 10 uM incubated for 48 hrs by sulforhodamine B assay relative to control
KM12 = assay: Cytotoxicity against human KM12 cells assessed as cell viability at 10 uM incubated for 48 hrs by sulforhodamine B assay relative to control
NCI/ADR-RES = assay: Cytotoxicity against human NCI/ADR-RES cells assessed as cell viability at 10 uM incubated for 48 hrs by sulforhodamine B assay relative to control
MDA-MB-435 = assay: Cytotoxicity against human MDA-MB-435 cells assessed as cell viability at 10 uM incubated for 48 hrs by sulforhodamine B assay relative to control
TK-10 = assay: Cytotoxicity against human TK-10 cells assessed as cell viability at 10 uM incubated for 48 hrs by sulforhodamine B assay relative to control
SF-268 = assay: Cytotoxicity against human SF-268 cells assessed as cell viability at 10 uM incubated for 48 hrs by sulforhodamine B assay relative to control
NCI-H226 = assay: Cytotoxicity against human NCI-H226 cells assessed as cell viability at 10 uM incubated for 48 hrs by sulforhodamine B assay relative to control
UACC-62 = assay: Cytotoxicity against human UACC-62 cells assessed as cell viability at 10 uM incubated for 48 hrs by sulforhodamine B assay relative to control
DU-145 = assay: Cytotoxicity against human DU-145 cells assessed as cell viability at 10 uM incubated for 48 hrs by sulforhodamine B assay relative to control
ACHN = assay: Cytotoxicity against human ACHN cells assessed as cell viability at 10 uM incubated for 48 hrs by sulforhodamine B assay relative to control
SNB-19 = assay: Cytotoxicity against human SNB-19 cells assessed as cell viability at 10 uM incubated for 48 hrs by sulforhodamine B assay relative to control
HOP-62 = assay: Cytotoxicity against human HOP-62 cells assessed as cell viability at 10 uM incubated for 48 hrs by sulforhodamine B assay relative to control
U-251 = assay: Cytotoxicity against human U-251 cells assessed as cell viability at 10 uM incubated for 48 hrs by sulforhodamine B assay relative to control
EKVX = assay: Cytotoxicity against human EKVX cells assessed as cell viability at 10 uM incubated for 48 hrs by sulforhodamine B assay relative to control
A549 = assay: Cytotoxicity against human A549 cells assessed as cell viability at 10 uM incubated for 48 hrs by sulforhodamine B assay relative to control
NCI-H522 = assay: Cytotoxicity against human NCI-H522 cells assessed as cell viability at 10 uM incubated for 48 hrs by sulforhodamine B assay relative to control
BT-549 = assay: Cytotoxicity against human BT-549 cells assessed as cell viability at 10 uM incubated for 48 hrs by sulforhodamine B assay relative to control
NCI-H23 = assay: Cytotoxicity against human NCI-H23 cells assessed as cell viability at 10 uM incubated for 48 hrs by sulforhodamine B assay relative to control
SNB-75 = assay: Cytotoxicity against human SNB-75 cells assessed as cell viability at 10 uM incubated for 48 hrs by sulforhodamine B assay relative to control
SK-MEL-28 = assay: Cytotoxicity against human SK-MEL-28 cells assessed as cell viability at 10 uM incubated for 48 hrs by sulforhodamine B assay relative to control
MDA-MB-231 = assay: Cytotoxicity against human MDA-MB-231 cells assessed as cell viability at 10 uM incubated for 48 hrs by sulforhodamine B assay relative to control
PC-3 = assay: Cytotoxicity against human PC-3 cells assessed as cell viability at 10 uM incubated for 48 hrs by sulforhodamine B assay relative to control
M14 = assay: Cytotoxicity against human M14 cells assessed as cell viability at 10 uM incubated for 48 hrs by sulforhodamine B assay relative to control
SW-620 = assay: Cytotoxicity against human SW-620 cells assessed as cell viability at 10 uM incubated for 48 hrs by sulforhodamine B assay relative to control
OVCAR-8 = assay: Cytotoxicity against human OVCAR-8 cells assessed as cell viability at 10 uM incubated for 48 hrs by sulforhodamine B assay relative to control
786-0 = assay: Cytotoxicity against human 786-0 cells assessed as cell viability at 10 uM incubated for 48 hrs by sulforhodamine B assay relative to control

Structure (SMILES): Cc1ccc(S(=O)(=O)NCCCNc2nccc(-c3c(-c4cccc(F)c4)nc4sccn34)n2)cc1
- viability at 10 µM (HL-60(TB)): 119%
- viability at 10 µM (MDA-MB-468): 78.2%
- viability at 10 µM (OVCAR-5): 111%
- viability at 10 µM (IGROV-1): 37.8%
- viability at 10 µM (OVCAR-4): 66.2%
- viability at 10 µM (RPMI-8226): 68.2%
- viability at 10 µM (K562): 52%
- viability at 10 µM (Hs-578T): 84.3%
- viability at 10 µM (CCRF-CEM): 62.7%
- viability at 10 µM (COLO 205): 55.5%
- viability at 10 µM (MOLT-4): 53.5%
- viability at 10 µM (OVCAR-3): 89%
- viability at 10 µM (SN12C): 70.5%
- viability at 10 µM (NCI-H460): 65.1%
- viability at 10 µM (HOP-92): 112%
- viability at 10 µM (SR): 102%
- viability at 10 µM (KM12): 67.3%
- viability at 10 µM (NCI/ADR-RES): 79.7%
- viability at 10 µM (MDA-MB-435): 48.8%
- viability at 10 µM (TK-10): 99.4%
- viability at 10 µM (SF-268): 65.9%
- viability at 10 µM (NCI-H226): 53.7%
- viability at 10 µM (UACC-62): 47.8%
- viability at 10 µM (DU-145): 77%
- viability at 10 µM (ACHN): 65.5%
- viability at 10 µM (SNB-19): 92.2%
- viability at 10 µM (HOP-62): 101%
- viability at 10 µM (U-251): 82.2%
- viability at 10 µM (EKVX): 78.1%
- viability at 10 µM (A549): 73%
- viability at 10 µM (NCI-H522): 70.8%
- viability at 10 µM (BT-549): 84.5%
- viability at 10 µM (NCI-H23): 96.2%
- viability at 10 µM (SNB-75): 98.7%
- viability at 10 µM (SK-MEL-28): 106%
- viability at 10 µM (MDA-MB-231): 84.5%
- viability at 10 µM (PC-3): 67.7%
- viability at 10 µM (M14): 80.7%
- viability at 10 µM (SW-620): 79.4%
- viability at 10 µM (OVCAR-8): 60.3%
- viability at 10 µM (786-0): 78.4%

Structure (SMILES): O=S(=O)(NCCCNc1nccc(-c2c(-c3cccc(F)c3)nc3sccn23)n1)c1ccc(Br)cc1
- viability at 10 µM (HL-60(TB)): 75.9%
- viability at 10 µM (MDA-MB-468): 32.3%
- viability at 10 µM (OVCAR-5): 110%
- viability at 10 µM (IGROV-1): 24.4%
- viability at 10 µM (OVCAR-4): 34.2%
- viability at 10 µM (RPMI-8226): 39.4%
- viability at 10 µM (K562): 25.4%
- viability at 10 µM (Hs-578T): 71.7%
- viability at 10 µM (CCRF-CEM): 36.8%
- viability at 10 µM (COLO 205): 33.5%
- viability at 10 µM (MOLT-4): 33.8%
- viability at 10 µM (OVCAR-3): 57.8%
- viability at 10 µM (SN12C): 53.9%
- viability at 10 µM (NCI-H460): 60.5%
- viability at 10 µM (HOP-92): 73.7%
- viability at 10 µM (SR): 78.1%
- viability at 10 µM (KM12): 46.7%
- viability at 10 µM (NCI/ADR-RES): 34.4%
- viability at 10 µM (MDA-MB-435): 31.6%
- viability at 10 µM (TK-10): 74.8%
- viability at 10 µM (SF-268): 60.6%
- viability at 10 µM (NCI-H226): 32.7%
- viability at 10 µM (UACC-62): 18.3%
- viability at 10 µM (DU-145): 61.9%
- viability at 10 µM (ACHN): 50.3%
- viability at 10 µM (SNB-19): 84.5%
- viability at 10 µM (HOP-62): 94.4%
- viability at 10 µM (U-251): 76.7%
- viability at 10 µM (EKVX): 57.4%
- viability at 10 µM (A549): 55.1%
- viability at 10 µM (NCI-H522): 37.9%
- viability at 10 µM (BT-549): 64%
- viability at 10 µM (NCI-H23): 57.4%
- viability at 10 µM (SNB-75): 88.6%
- viability at 10 µM (SK-MEL-28): 67%
- viability at 10 µM (MDA-MB-231): 76.4%
- viability at 10 µM (PC-3): 40.8%
- viability at 10 µM (M14): 48.1%
- viability at 10 µM (SW-620): 77.6%
- viability at 10 µM (OVCAR-8): 28%
- viability at 10 µM (786-0): 73.5%
